Reference: PubChem BioAssay (NCI)
Several values for one entry are separate records, joined by “and”; a condition that tells them apart may be missing. Identical values can stand only once.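 Results reflect a 48-hour exposure of cells in 96-well plates to compound at five concentrations. At the GI50, growth is halved. TGI: total growth inhibition.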

What was measured:
Assay in all cases: inhibition of tumour cell growth, NCI panel, 48 h
786-0 renal = tested on: 786-0 renal
A549 NSCLC = tested on: A549 NSCLC
BT-549 breast = tested on: BT-549 breast
CAKI-1 renal = tested on: CAKI-1 renal
CCRF-CEM leukemia = tested on: CCRF-CEM leukemia
HCT-116 colon = tested on: HCT-116 colon
HT29 colon = tested on: HT29 colon
OVCAR-4 ovarian = tested on: OVCAR-4 ovarian
SF-295 CNS = tested on: SF-295 CNS
SR leukemia = tested on: SR leukemia

Structure (SMILES)	GI50 (786-0 renal) [µM]	TGI (786-0 renal) [µM]	GI50 (A549 NSCLC) [µM]	TGI (A549 NSCLC) [µM]	GI50 (BT-549 breast) [µM]	TGI (BT-549 breast) [µM]	GI50 (CAKI-1 renal) [µM]	TGI (CAKI-1 renal) [µM]	GI50 (CCRF-CEM leukemia)	TGI (CCRF-CEM leukemia)	GI50 (HCT-116 colon) [µM]	TGI (HCT-116 colon) [µM]	GI50 (HT29 colon) [µM]	TGI (HT29 colon) [µM]	GI50 (OVCAR-4 ovarian) [µM]	TGI (OVCAR-4 ovarian) [µM]	GI50 (SF-295 CNS) [µM]	TGI (SF-295 CNS) [µM]	TGI (SR leukemia) [µM]	GI50 (SR leukemia) [µM]
CC(=O)NC1C(OC[C@@H](CC(=O)N[C@@H](CC(=O)O)CC(=O)N[C@H](CC(=O)N[C@@H](CCCN)CC(=O)N[C@@H](CCCN)CC(=O)N[C@H](CC(N)=O)C(C)C)C(C)C)NC(=O)C[C@@H](N)C(C)C)OC(CO)C(O)C1O (some centres not stated)	> 100	> 100	> 100	> 100	> 100	> 100	> 100	> 100	> 100 µM	> 100 µM	> 100	> 100	> 100	> 100	> 100	> 100	> 100	> 100		
C=C1C(=O)O[C@H]2[C@H]1CC/C(COC(=O)CSCSCC(=O)OC/C1=C/CC[C@@]3(C)O[C@H]3[C@H]3OC(=O)C(=C)[C@@H]3CC1)=C\CC[C@@]1(C)O[C@@H]21	1.41	2.89	2.44	6.23	1.47	2.91	1.74	3.32	0.304 µM	1.47 µM	0.59	1.93	1.37	2.82	2.68	8.74	1.85	4.46		
CCc1ccccc1NC(=O)C1=C(C)NC(C)=C(C(=O)Nc2ccccc2CC)C1c1ccccc1Cl		> 100		> 100				> 100		> 100 µM		> 100		> 100		> 100		> 100		
O=C1CC(O)CC(=O)C1=C(O)CCCCCCCCCCc1ccccc1 (configuration not stated)		> 100		> 100				> 100		> 100 µM		> 100		> 100		> 100		> 100	> 100	
OC(Cc1ccncc1)C(Cl)(Cl)Cl (configuration not stated)	> 100	> 100	> 100	> 100	> 100	> 100	32.4	> 100	32 µM	> 100 µM			> 100	> 100	> 100	> 100	7.83	> 100		
Cc1c2ccncc2c(C)c2c1[nH]c1ccc(OC(C)C)cc12		2.44		3.1				2.96		7.68 µM		2.04		2.64		3.14		2.73	3.73	
CN(/N=C/c1cccc2cccnc12)c1ccc([N+](=O)[O-])cc1[N+](=O)[O-]		35.8		> 100		59.7		64.9		> 100 µM		> 82.1		> 100		> 70.3		33		
CN(O)C(=O)SCC(NC(=O)CCC(N)C(=O)O)C(=O)NCC(=O)O (configuration not stated)	> 2000	> 2000	> 2000	> 2000			> 2000	> 2000	198 µM and 520 µM	> 2 µM and 649 µM and 1240 µM	> 2000	> 2000	> 2000	> 2000	> 2000	> 2000		> 2	> 2	
Cc1ccc(NCC(=O)N2CC(=O)Nc3ccccc32)c(C)c1		> 100		> 100				> 100		> 100 µM		> 100		> 100		> 100		> 100	> 100	
C=CCOc1cc(NC(=S)c2ccoc2C)ccc1OC		> 100		> 100		> 100		> 100		> 100 µM		> 100		> 100		> 100		> 100		
CCOC(=O)/C(C=Nc1ccc(-c2nc3ccccc3[nH]2)cc1)=C(/C)O	11	23.5	12	29.9	10	24.9	17.6	> 50			7.82	14.5					16.4	> 50		
Cc1cc(CC(=O)NCCO)n(CCO)c(=O)c1		> 100		> 100				> 100		> 100 µM		> 100		> 100		> 100		> 100	> 100	
O=[N+]([O-])c1ccc(C[P+](c2ccccc2)(c2ccccc2)c2ccccc2)cc1		> 100		> 100						> 100 µM		> 100		> 100				> 100	> 100	
CCN(CC)c1c(C(=O)/C=C/c2ccc(Cl)cc2)c(-c2ccccc2)nn(C)c1=O		3.5		3.89				21.5		8.82 µM		3.11		3.32		3.27		3.38		
COc1ccc2[nH]cc(-c3ccc(-c4c[nH]c5ccc(OC)cc45)s3)c2c1	2.36	7.64	3.94	21.9	7.44	20.9	5.54	19	0.345 µM	13.6 µM	3.62	11.7	2.06	4.51	6.82	23.7	2.8	8.47		
COC(=O)NC(=O)c1cn(C2OC(CO)C(O)C2O)c(=O)[nH]c1=O (configuration not stated)		> 100		> 100				> 100				> 100		> 100		> 100		> 100	> 100	
O=C(NCCCCNc1cccccc1=O)OCc1ccccc1		> 100		> 100				> 100		> 100 µM		> 100		> 100		> 100		> 100		
CC1=C(C(=O)Nc2cc(=O)n(C)c(=O)n2C)C(c2ccco2)C(C(=O)Nc2cc(=O)n(C)c(=O)n2C)=C(C)N1		> 100		> 100				> 100		> 100 µM				> 100		> 100		> 100		
C[C@]12C[C@H](CCCCCCNCCOC(=O)NCCCc3ccc(N(CCCl)CCCl)cc3)C3=C4CCC(=O)C=C4CCC3C1CC[C@@H]2O (some centres not stated)	0.841	3.89			1.6	3.09	1.55	3.3	0.234 µM	0.621 µM	2.34						2.07	> 100		
CC1(C)C2CCC13C(=O)C1OC3(C2)C2C(=O)c3cc4ccccc4cc3C(=O)C12 (configuration not stated)	6	36.6	26.2	76.3			1.29	5.33	3.42 µM	25.7 µM	12	> 100	11.3	> 100					7.04	1.83

Structure (SMILES)	GI50 (786-0 renal) [µM]	TGI (786-0 renal) [µM]	GI50 (A549 NSCLC) [µM]	TGI (A549 NSCLC) [µM]	GI50 (BT-549 breast) [µM]	TGI (BT-549 breast) [µM]	GI50 (CAKI-1 renal) [µM]	TGI (CAKI-1 renal) [µM]	GI50 (CCRF-CEM leukemia)	TGI (CCRF-CEM leukemia)	GI50 (HCT-116 colon) [µM]	TGI (HCT-116 colon) [µM]	GI50 (HT29 colon) [µM]	TGI (HT29 colon) [µM]	GI50 (OVCAR-4 ovarian) [µM]	TGI (OVCAR-4 ovarian) [µM]	GI50 (SF-295 CNS) [µM]	TGI (SF-295 CNS) [µM]	TGI (SR leukemia) [µM]	GI50 (SR leukemia) [µM]
CCOC(=O)c1nn2c(nc1=O)sc1ccc3ccccc3c12		> 100		> 100				> 100		> 100 µM		> 100		> 100		> 100		> 100	> 100	
CS(=O)(=O)OC1CCC2(C#N)CCC1C2=O (configuration not stated)		> 100		> 100				> 100		> 100 µM		> 100		> 100		> 100		> 100	44	
NC(=O)C(=O)N/N=C1\C(=O)N(c2ccc(Cl)cc2Cl)C(=O)C1C(=O)Nc1ccc(Cl)cc1Cl (configuration not stated)		> 100		> 100				> 100		> 100 µM		> 100		> 100				> 100	> 100	
N#CC1(C#N)C2(c3ccccc3)OC(c3ccccc3)(c3cc4ccccc4cc32)C1(C#N)C#N		21.3		33.9				24.1		3.29 µM		20		29.3		27.2		29.9	53.8	
Cc1cccc(/C=C/c2c(C(=O)/C=C/c3ccccc3)c(C)nc3ccccc23)c1	1.62	3.11	1.91	4.76			1.29	2.59	1.33 µM	> 100 µM			2.12	16.9			1.89	3.73	4.94	0.982
N.N.N.N.N.NC(=O)c1nn[n-]n1.[Cl-].[Co+3]	> 100	> 100	> 100	> 100			> 100	> 100	> 100 µM	> 100 µM	> 100	> 100	> 100	> 100	> 100	> 100	> 100	> 100	> 100	> 100
CCCCCCCCCCCc1nnc(N)o1		> 100		> 100								> 100		> 100		> 100		> 100		
CC(C)=CC1C[C@H](C2CC=C3C2(C)CCC2[C@@]3(C)C(=O)CC3[C@]2(C)C=CC(=O)[C@]3(C)CO)CO1 (some centres not stated)		15.7		52.4				49		8.71 µM		10.2		18.2		41.3		32.1	10.8	
O=C(c1ccccc1)c1ccccc1-c1ccccc1	10.6	90.7	4.87	> 100	10.3	> 100	1.52	7.85			3.17	30.1	0.986	14.3	18.7	> 100	1.85	29		
O=C(O)CCCSC(=O)Nc1ccc(N=Nc2ccccc2)cc1		> 100		> 100				> 100		> 100 µM		> 100		> 100		> 100		> 100	> 100	
O=C(O)CCN(CCCCN(CCC(=O)O)CCC(=O)O)CCC(=O)O		> 100		> 100				> 100		> 100 µM		> 100		> 100		> 100		> 100		
CC1(C)O[C@H]2[C@H](O)C[C@](O)(CO)C[C@H]2O1		> 100		> 100				> 100				> 100		> 100		> 100		> 100	> 100	
CC1=C(c2ccccc2)C(c2ccccc2)=C(c2ccccc2)C2(c3ccccc3)C(=O)C(C)CN12 (configuration not stated)		> 100		> 100				> 100				> 100		> 100		50.5		37.7	> 100	
O=C1N(C2CCCCC2)CC12CCCCC2		> 100		> 100						> 100 µM		> 100				> 100				
O=C(O)C1=C(O)C(C(=O)O)C23CCCCCCCCCCC12C(C(=O)O)C(O)=C3C(=O)O (configuration not stated)		> 100		> 100						> 100 µM				> 100				> 100	> 100	
C=CCNC(=O)N(CCCCC(NC(C)=O)C(=O)NCc1ccccc1)Cc1ccccc1 (configuration not stated)		> 100		> 100				> 100		> 100 µM				> 100		> 100		> 100		
COc1cc(Br)c(C=Nc2cccc3cc(OC)c(OC)cc23)cc1OC		> 100		> 100				> 100		> 100 µM		> 100		98.4		> 100		73.4	> 100	
COc1ccc(C23C(=O)c4ccccc4N2O[C@H]2C(=O)N(c4ccccc4)C(=O)[C@H]23)cc1 (some centres not stated)		> 100		> 100				> 100		> 100 µM		> 100		> 100		> 100		> 100		
CCOC(=O)C12CCCC1(O)N(NC(=O)OC(C)(C)C)C(C)=C2C(=O)OC (configuration not stated)		> 100		> 100				> 100		> 100 µM		> 100		> 100		> 100		> 100		
